One assay deals with MV4-11 cell xenografts. Details: method as in PMID 29357250. Particulars: cited from earlier work.
The subject of a further assay is CDK4. Details: method as in PMID 29357250. Conditions: cited from earlier work.
The next assay deals with CDK6. Set-up: method as in PMID 29357250. Particulars: cited from earlier work.
Another assay deals with T1, CDK2 (Homo sapiens, UniProt P24941).
T1 construct: purchased Invitrogen/Life Technologies
The assay is described as follows: Z'-LYTE kinase assay. The assay is classed as biochemical. Particulars: three separate experiments ± SD. As to the method:
(§1) The Z’-LYTE® technology, which relies on FRET (Fluorescence Resonance Energy Transfer) from Invitrogen/Life Technologies, was employed for this evaluation for all kinases except VEGFR-2. The VEGFR-2 kinase assay was conducted in a 96-well streptavidin-coated plate using a recombinant human VEGFR-2/KDR ELISA kit, following the manufacturer’s instructions. […] Statistical significance was assessed using one-way analysis of variance (ANOVA), followed by the Dunnett test; data are represented as means ± SD.

For a further assay, the target named is T2, FLT3 (Homo sapiens, UniProt P36888).
T2 construct: purchased Invitrogen/Life Technologies
T2 sequence (P36888 27-993): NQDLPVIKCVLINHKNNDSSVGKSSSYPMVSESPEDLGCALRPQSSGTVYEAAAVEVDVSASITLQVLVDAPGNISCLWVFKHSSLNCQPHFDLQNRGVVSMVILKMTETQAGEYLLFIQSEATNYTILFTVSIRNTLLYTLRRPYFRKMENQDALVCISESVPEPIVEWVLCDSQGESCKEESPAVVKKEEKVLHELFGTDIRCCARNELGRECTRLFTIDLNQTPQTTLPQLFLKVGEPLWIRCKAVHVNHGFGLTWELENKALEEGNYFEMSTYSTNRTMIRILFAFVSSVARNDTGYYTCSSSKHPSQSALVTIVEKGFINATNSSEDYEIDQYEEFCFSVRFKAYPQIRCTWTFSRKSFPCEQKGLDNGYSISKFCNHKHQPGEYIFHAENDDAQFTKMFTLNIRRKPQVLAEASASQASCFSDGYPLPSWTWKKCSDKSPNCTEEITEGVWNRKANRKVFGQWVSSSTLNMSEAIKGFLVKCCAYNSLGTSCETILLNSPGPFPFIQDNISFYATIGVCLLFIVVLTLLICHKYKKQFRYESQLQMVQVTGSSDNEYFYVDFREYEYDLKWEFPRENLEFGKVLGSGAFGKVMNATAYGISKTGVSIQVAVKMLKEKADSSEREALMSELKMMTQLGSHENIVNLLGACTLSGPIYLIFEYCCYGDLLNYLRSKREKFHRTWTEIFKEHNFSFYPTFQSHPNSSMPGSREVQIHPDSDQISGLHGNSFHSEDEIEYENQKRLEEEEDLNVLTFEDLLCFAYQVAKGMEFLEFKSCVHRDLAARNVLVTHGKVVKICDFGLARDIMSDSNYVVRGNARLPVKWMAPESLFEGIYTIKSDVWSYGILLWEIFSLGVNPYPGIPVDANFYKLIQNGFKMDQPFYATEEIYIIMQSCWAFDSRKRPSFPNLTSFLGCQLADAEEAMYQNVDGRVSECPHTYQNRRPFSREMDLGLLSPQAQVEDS
The assay is described as follows: Z'-LYTE kinase assay. Particulars: three separate experiments ± SD. The assay is classed as biochemical. As to the method:
as §1

The subject of assay [1] is MCF-7 breast cancer cell line. Set-up: method as in PMID 36844536. Particulars: cited from earlier work.
The subject of assay [2] is MCF-12A normal breast cell line. Set-up: method as in PMID 36844536. Conditions: cited from earlier work.
The test system of assay [3] is FLT3 ITD-mutated MV4-11 AML cells. Details: method as in PMID 36403191, PMID 37446914. Conditions: after 72 h; cited from earlier work.
A further assay concerns the target FLT3 kinase. Set-up: method as in PMID 36403191, PMID 37446914. Conditions: cited from earlier work.

SMILES strings stand for the structures.

A word on the IC50: it is the concentration needed to halve the response being measured.

`CN1CCN(Cc2ccc(NC(=O)c3n[nH]cc3Nc3ncnc4[nH]ccc34)cc2)CC1` [FN-1501, 4-((7H-Pyrrolo[2,3-d]pyrimidin-4-yl)amino)-N-(4-((4-methylpiperazin-1-yl)methyl)phenyl)-1H-pyrazole-3-carboxamide]: the “effectiveness in treating leukemia in mouse models” value with MV4-11 cell xenografts is given as “remarkable effectiveness”. The 50% inhibitory concentration (IC50) with CDK4 was 0.85 nM; in the assay on CDK6, 1.96 nM; at CDK2 it was 1.99 ± 0.12 nM; against FLT3 it was 0.79 ± 0.08 nM.
Turning to `COc1cc(C=C2C(=O)Nc3ccc(Cl)cc32)ccc1OCc1ccccn1` [IV], in [1], the IC50 was 17000 nM. For the same compound, in assay [2], the “impact on the MCF-12A normal breast cell line” value is “no impact”.
In the case of `COc1cc(C=C2C(=O)Nc3ccccc32)ccc1O` [III], the IC50 in assay [3] was 4300 nM; on FLT3 kinase, 2490 nM.

These data come from PMC11124822, “Discovery and Anticancer Screening of Novel Oxindole-Based Derivative Bearing Pyridyl Group as Potent and Selective Dual FLT3/CDK2 Kinase Inhibitor” (Pharmaceuticals, 2024).
